Broadly, the IC50 is the concentration at which inhibition is half-maximal. A high value points to weaker potency.

The source made the active and inactive calls. The rule behind the calls is not given here.

One assay concerns the target T1, Tyrosinase (Agaricus bisporus) (UniProt O42713).
T1 sequence (whole entry): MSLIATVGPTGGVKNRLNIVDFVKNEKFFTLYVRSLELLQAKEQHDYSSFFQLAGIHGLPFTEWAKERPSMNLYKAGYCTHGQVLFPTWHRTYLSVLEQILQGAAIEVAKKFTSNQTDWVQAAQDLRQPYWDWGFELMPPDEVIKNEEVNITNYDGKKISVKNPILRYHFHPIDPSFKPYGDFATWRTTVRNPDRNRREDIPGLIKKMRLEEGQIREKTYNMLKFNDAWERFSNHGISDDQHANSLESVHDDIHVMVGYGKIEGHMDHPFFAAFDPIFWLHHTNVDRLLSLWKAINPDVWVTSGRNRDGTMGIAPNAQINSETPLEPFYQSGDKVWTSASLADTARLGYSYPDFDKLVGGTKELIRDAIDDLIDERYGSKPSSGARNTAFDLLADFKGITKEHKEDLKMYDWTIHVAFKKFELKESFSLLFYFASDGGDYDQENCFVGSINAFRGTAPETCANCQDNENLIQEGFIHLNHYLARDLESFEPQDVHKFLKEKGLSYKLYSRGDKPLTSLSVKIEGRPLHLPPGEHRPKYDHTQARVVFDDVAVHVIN
The assay can be described thus: Competitive inhibition of mushroom tyrosinase using L-DOPA as substrate preincubated at 0.2 to 0.6 uM for 10 mins by Lineweaver-Burk double reciprocal plot method.
`C/C(Cc1ccc(OCc2ccccc2)cc1)=N\NC(N)=S`: the inhibition result was “Active”.

In another assay the target is T1, Tyrosinase (Agaricus bisporus). The assay can be described thus: Competitive inhibition of mushroom tyrosinase using L-DOPA as substrate preincubated at 0.1 to 0.3 uM for 10 mins by Lineweaver-Burk double reciprocal plot method.
Consider `C/C(CCc1ccc(OCc2ccccc2)cc1)=N\NC(N)=S`, for which the inhibition entry is “Active”.

The next assay concerns the target T2, Tyrosinase (Agaricus bisporus, UniProt O42713).
T2 sequence (O42713 whole entry): T1 sequence (whole entry)
Description: Inhibition of mushroom tyrosinase using L-DOPA as substrate preincubated for 10 mins by spectrophotometry
On to `CCCCCOc1ccc(CC/C(C)=N/NC(N)=S)cc1`, for which half-maximal inhibition (IC50) required 412 nM.

In turn, `CCCCOc1ccc(CC/C(C)=N/NC(N)=S)cc1` came in with an IC50 of 272 nM. This IC50 lies about 1.5-fold lower than the previous one.

For the molecule `CCCCCCCCOc1ccc(CC/C(C)=N/NC(N)=S)cc1`, the IC50 amounted to 865 nM.

The molecule `C/C(CCc1ccc(OC(=O)c2ccccc2)cc1)=N\NC(N)=S` displayed a half-inhibitory concentration (IC50) of 156 nM.

Molecule `C/C(CCc1ccc(OCCCC(=O)O)cc1)=N\NC(N)=S` had an IC50 of 678 nM.

As for `C/C(CCc1ccc(OC(=O)C(C)C)cc1)=N\NC(N)=S`, the IC50 was 288 nM.

As for `CCOC(=O)CCCOc1ccc(CC/C(C)=N/NC(N)=S)cc1`, the midpoint of inhibition, the IC50, lay at 328 nM.

Regarding `C/C(CCc1ccc(OCc2ccccc2)cc1)=N\NC(N)=S`, the IC50 was determined as 217 nM.

`CCCCCOc1ccc(C/C(C)=N/NC(N)=S)cc1`: half-maximal inhibition (IC50) was put at 613 nM.

`COc1ccc(CC/C(C)=N/NC(N)=S)cc1` returned an IC50 of 188 nM.

For the molecule `CCOc1ccc(CC/C(C)=N/NC(N)=S)cc1`, it took 209 nM to reach half-maximal inhibition (IC50).

`C/C(Cc1ccc(O)cc1)=N\NC(N)=S` yielded an IC50 of 2710 nM.

Consider `COc1ccc(/C(C)=N/NC(=S)NN)cc1`, for which half-maximal inhibition (IC50) was put at 110000 nM. This IC50 lies about 41-fold higher than the previous one.

On to `C/C(CCc1ccc(OCCCc2ccccc2)cc1)=N\NC(N)=S`, for which the IC50 came to 835 nM.

With `CCCCOc1ccc(C/C(C)=N/NC(=S)NN)cc1`, the IC50 is 224000 nM.

Turning to `C/C(CCc1ccc(O)cc1)=N\NC(=S)NN`, it took 126000 nM to reach half-maximal inhibition (IC50).

In the case of `CCCCOc1ccc(CC/C(C)=N/NC(=S)NN)cc1`, half-maximal inhibition (IC50) was put at 232000 nM.

On to `C/C(CCc1ccc(OCCC(C)C)cc1)=N\NC(N)=S`, for which the IC50 turned out to be 475 nM.

With `CCC(CC)Oc1ccc(CC/C(C)=N/NC(N)=S)cc1`, it took 445 nM to reach half-maximal inhibition (IC50). This IC50 and that of the molecule before are within 1.5-fold of each other.

As to `CCCCCCOc1ccc(CC/C(C)=N/NC(N)=S)cc1`, half-maximal inhibition (IC50) required 754 nM.

Turning to `C/C(CCc1ccc(OCc2ccc(Br)cc2)cc1)=N\NC(N)=S`, the IC50 worked out at 438 nM.

The molecule `C/C(Cc1ccc(OCc2ccccc2)cc1)=N\NC(N)=S` had an IC50 of 340 nM.

In turn, `COc1ccc(CC/C(C)=N/NC(=S)NN)cc1` registered a half-maximal inhibitory concentration (IC50) of 208000 nM. Against the preceding molecule, the IC50 is about 610-fold higher.

`COc1ccc(C/C(C)=N/NC(=S)NN)cc1` displayed an IC50 of 159000 nM.

The molecule `NNC(=S)NN` returned an IC50 of 178000 nM.

For the molecule `CC(=O)Oc1ccc(CC/C(C)=N/NC(N)=S)cc1`, the IC50 was found to be 72 nM.

As to `CCCOc1ccc(CC/C(C)=N/NC(N)=S)cc1`, the IC50 was determined as 264 nM.

`C/C(CCc1ccc(OCC(=O)O)cc1)=N\NC(N)=S` came in with an IC50 of 593 nM. Against the preceding molecule, the IC50 is about 2.2-fold higher.

`CCOC(=O)COc1ccc(CC/C(C)=N/NC(N)=S)cc1` came in with an IC50 of 515 nM.

As for `CCOC(=O)CCCOc1ccc(C/C(C)=N/NC(N)=S)cc1`, it took 478 nM to reach half-maximal inhibition (IC50). This IC50 and that of the molecule before are within 1.5-fold of each other.

The target in another assay is T1, Tyrosinase (Agaricus bisporus). The assay can be described thus: Reversible inhibition of mushroom tyrosinase using L-DOPA as substrate preincubated at 0.1 to 0.3 uM for 10 mins by spectrophotometry.
For `C/C(CCc1ccc(OCc2ccccc2)cc1)=N\NC(N)=S`, the inhibition result was “Active”.

The target is the same in another assay. The assay can be described thus: Reversible inhibition of mushroom tyrosinase using L-DOPA as substrate preincubated at 0.2 to 0.6 uM for 10 mins by spectrophotometry.
Consider `C/C(Cc1ccc(OCc2ccccc2)cc1)=N\NC(N)=S`, for which the inhibition result was “Active”.

(Values after ChEMBL document CHEMBL3399985, “Rational design, synthesis and structure-activity relationships of 4-alkoxy- and 4-acyloxy-phenylethylenethiosemicarbazone analogues as novel tyrosinase inhibitors” (Bioorg Med Chem, 2015).)
